This note sets out measurements from patent publication US20180133221A1, “ADMINISTRATION OF UBIQUITIN-ACTIVATING ENZYME INHIBITOR AND CHEMOTHERAPEUTIC AGENTS” (Millennium Pharmaceuticals, Inc., priority 2014, published 2018).

Where two headings read alike, the source gives them in different places.

The subject of data set [1] is CTG-0256 human ovarian xenograft. The data set can be described thus: CTG-0256 xenograft model, Compound 1 and carboplatin. The note with it: for Volume Tumor Day 14: in mm³ (unit assumed). It is filed as in vivo, Mus musculus/nu/nu mice. An excerpt: The CTG-0256 model of human ovarian xenograft model was established from a patient-derived tumor collected during surgery at primary site from a person with ovarian cancer (serous adenocarcinoma with resistant response to carboplatin or paclitaxel). CTG-0256 tumor fragments (approximately 2×2×3 mm^3) were implanted into the subcutaneous space in the right dorsal flank of female Mus musculus/nu/nu mice (age 6-9 weeks, Harlan Laboratories, Madison, Wis.) using a 13-gauge trocar. When the mean tumor volume reached approximately 150 mm^3, the animals were randomized into 7 treatment groups (n=7/group).
Carboplatin (Teva Pharmaceuticals) is formulated in 0.9% saline and administered by IP injection once weekly (QW) at 25, 50, 60, and 75 mg/kg. The once weekly schedule is also described as every 7 days (Q7D).
(§1) Compound 1 [((1R,2R,3S,4R)-2,3-dihydroxy-4-(2-(3-(trifluoromethylthio)-phenyl)pyrazolo[1,5-a]pyrimidin-7-ylamino)cyclopentyl)methyl sulfamate] is formulated in 10-20% HPbCD in sterile water and administered intravenously (IV) or subcutaneously (SC) on a BIW (twice/week schedule; Monday and Thursday or Tuesday and Friday) for either 2-4 weeks.
(§2) Tumors were measured twice weekly using vernier calipers. Tumor volumes were calculated using the standard formula V=W^2×L/2,). When mean tumor volumes reached approximately 200 mm^3 for PHTX-24C, 220 mm^3 for PHTX-Lu132, 150 mm^3 for CTG-0256, 260 mm^3 for CTG-0486, 185 mm^3 for PHTX-17C, 260 mm^3 for CTG-0165, 150 mm^3 for PHTX-14B in the study of Compound 1 and paclitaxel, 180 mm^3 for PHTX-14B in the study of Compound 1 and docetaxel, 200 mm^3 for SKOV-3, 220 mm^3 for PHTX-02B in the study of Compound 1 and docetaxel, 250 mm^3 for PHTX-02B in the study of Compound 1 and paclitaxel, 195 mm^3 for CTG-0159, 180 mm^3 for CTG-0012 or 150 mm^3 for Calu-6, mice were randomized into groups of n=5-7/arm as described in the tables below, and injected with vehicle, Compound 1 or agents (docetaxel, paclitaxel, oxaliplatin, cisplatin or carboplatin), or the combination of Compound 1 plus one of the agents, at various doses and schedules as described in tables below. Tumor size and body weight were measured approximately twice a week for the duration of the study. Mice are euthanized when their tumor volume reached 10% of their body weight, or when the average tumor volume of a treatment or control group reached approximately 2000 mm^3. Tumor growth continued to be monitored after the dosing period in some studies. Average tumor volume is reported as a function of time for selected arms of selected studies in the Figures.
(§3) Measurements from day 0 to day 14, day 19, day 21, or day 28 are analyzed as specified in Tables below. All tumor volumes have a value of 1 added to them before log10 transformation. For each animal, the log tumor volume at day 0 is subtracted from the log tumor volume on the subsequent days. This difference vs. time is used to calculate an area under the curve (AUC) for each animal using the trapezoid rule. […] The synergy score for the combination of agents A and B is defined as
(§4) 100*(mean(AUCAB)−mean(AUCA)−mean(AUCB)+mean(AUCctl))/mean(AUCctl):
(§5) where AUCAB, AUCA, AUCB, and AUCctl are the AUC values for animals in the combination group, the A group, the B group, and the control group, respectively. The standard error of the synergy score is computed based on the variation in the AUC values among the animals. […] If the P-value is above 0.05, then the combination is considered to be additive. If the P-value is below 0.05, and the synergy score is less than zero, then the combination is considered to be synergistic.

The test system of data set [2] is CTG-0159 human lung NSCLC xenograft. The data set can be described thus: CTG-0159 xenograft model, Compound 1 and docetaxel. It is filed as in vivo, Mus musculus/nu/nu mice. The settings on record: for Tumor Volume Day 21: in mm³ (unit assumed). The method, then:
(§6) Docetaxel (Henry Schein, Inc., Pittsburgh Pa.) is formulated in 0.9% saline and administered by intravenous injection (IV) once weekly (QW) at 5 mg/kg or 10 mg/kg. […] Tumors were measured twice weekly using vernier calipers.

In data set [3] the test system is PHTX-14B breast xenograft. The data set is described as follows: PHTX-14B xenograft model, Compound 1 and docetaxel. The note with it: for Tumor Volume Day 28: in mm³ (unit assumed). It is filed as in vivo, nude mice. Here is the method: as §6
Data set [4] has as its system CTG-0486 human ovarian xenograft. The class given is in vivo. The settings on record: for Tumor Volume Day 21: in mm³ (unit assumed).
Excerpt: The CTG-0486 model of human ovarian xenograft model was established from a patient-derived tumor collected during surgery from a person with ovarian cancer (serous adenocarcinoma, metastases to the small bowel). CTG-0486 tumor fragments (approximately 2×2×3 mm^3) are implanted into the subcutaneous space in the right dorsal flank of female Mus musculus/nu/nu mice (age 6-9 weeks, Harlan Laboratories, Madison, Wis., USA) using a 13-gauge trocar needle. When the mean tumor volume reached approximately 260 mm3, the animals were randomized into 8 treatment groups (n=5/group).
[…] The once weekly schedule is also described as every 7 days (Q7D).
as §1, §2, §3, §4, §5

Data set [5] has as its system Calu-6 non-small cell lung cancer xenograft. The data set can be described thus: Calu-6 xenograft model, Compound 1 and docetaxel. It is filed as in vivo, nude mice. The note with it: for Tumor Volume Day 21: in mm³ (unit assumed). Here is the method:
Calu-6 is a non-small cell lung cancer cell-lined derived xenograft model. Nine week old female nude mice (Taconic Farms, Inc) were inoculated subcutaneously in the flank (cell suspension) with 4.0×10^6 Calu-6 cells suspended in serum free MEM. […] Docetaxel (Henry Schein, Inc., Pittsburgh Pa.) is formulated in 0.9% saline and administered by intravenous injection (IV) once weekly (QW) at 5 mg/kg or 10 mg/kg. […] Tumors were measured twice weekly using vernier calipers.

As for `NS(=O)(=O)OC[C@H]1C[C@@H](Nc2ccnc3cc(-c4cccc(SC(F)(F)F)c4)nn23)[C@H](O)[C@@H]1O` [Compound 1, ((1R,2R,3S,4R)-2,3-dihydroxy-4-(2-(3-(trifluoromethylthio)phenyl)pyrazolo[1,5-a]pyrimidin-7-ylamino)cyclopentyl)methyl sulfamate], the “Volume Tumor Day 14” value in data set [1] (6.25 mg/kg Compound 1 BIWx2 IV) came out at 1291.5; in data set [1] (15 mg/kg Compound 1 BIWx2 IV) it was 1638.6; in data set [1] (20 mg/kg Compound 1 BIWx2 IV), 1406.7. Besides, the “anti-tumor activity compared to vehicle control” value is reported as “modest to weak anti-tumor activity” in data set [1] (single agent Compound 1 IV at 20, 15, 6.25 mg/kg BIW); “modest to strong anti-tumor activity” in data set [4] (single agent Compound 1 SC at 6.25, 15, 20 and 25 mg/kg BIW for 3 weeks). Moreover, the “Tumor Volume Day 21” value in data set [2] (6.25 mg/kg Compound 1 BIWx3 IV) is 1618.9; in data set [2] (15 mg/kg Compound 1 BIWx3 IV) it was 2373.2; in data set [2] (20 mg/kg Compound 1 BIWx3 IV), 1376.2; in data set [4] (6.25 mg/kg Compound 1 BIWx3 SC) it was 476.9; in data set [4] (15 mg/kg Compound 1 BIWx3 SC), 131.9; in data set [4] (20 mg/kg Compound 1 BIWx3 SC), 92.7. Also, the “Tumor Volume Day 21” value is recorded as 151.7 in data set [4] (25 mg/kg Compound 1 BIWx3 SC), 1302.2 in data set [5] (5 mg/kg Compound 1 BIWx3 IV), 1346.4 in data set [5] (10 mg/kg Compound 1 BIWx3 IV) and 1072.4 in data set [5] (15 mg/kg Compound 1 BIWx3 IV). For the same compound, in data set [2] (Compound 1 alone at 20, 15, and 6.25 mg/kg IV BIW), the tumor growth entry is given as “did not inhibit tumor growth”. Further, the “Tumor Volume Day 28” value in data set [3] (10 mg/kg Compound 1 BIWx3 SC) is 499.4; in data set [3] (20 mg/kg Compound 1 BIWx3 SC) it was 399.4. Also, in data set [3] (single agent Compound 1 SC at 20 and 10 mg/kg BIW), the “tumor growth compared to the vehicle control group” value is given as “inhibited tumor growth”. Further, in data set [4] (20 and 25 mg/kg doses of Compound 1, SC BIW), the tolerability entry is listed as “not tolerated”. In data set [5] (single agent Compound 1 IV at 5, 10 and 20 mg/kg IV BIW), the “anti-tumor responses compared to the vehicle control” value is listed as “modest anti-tumor responses”.
